# Where two headings read alike, the source gives them in different places.
# Key:
# [1] = system: BH4 levels in SK-N-BE (2) cells; assay: SKN-N-BE (2) cellular assay, BH4 levels by LC-MS; assay type: cell-based
# [2] = biological target: SNAP-hSPR (sepiapterin reductase, SPR) (Homo sapiens, UniProt P35270); assay: biochemical; assay type: binding; details: terbium labelled SNAP-hSPR / SSZ labelled SNAP-EGFP; read-out: hTR-FRET IC50
# [3] = Homo sapiens, SKNBE2, read-out: SK-N-BE(2) IC50, SK-N-BE (2) cells, BH4 levels by LC-MS
# SNAP-hSPR (sepiapterin reductase, SPR), sequence (P35270 whole entry): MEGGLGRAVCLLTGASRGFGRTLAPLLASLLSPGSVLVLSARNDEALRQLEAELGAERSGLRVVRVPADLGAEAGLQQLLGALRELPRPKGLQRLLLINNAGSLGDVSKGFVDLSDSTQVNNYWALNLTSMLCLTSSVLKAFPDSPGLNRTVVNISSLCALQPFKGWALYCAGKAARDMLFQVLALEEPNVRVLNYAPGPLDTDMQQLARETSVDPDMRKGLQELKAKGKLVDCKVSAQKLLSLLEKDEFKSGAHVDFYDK
SMILES,"IC50 [1, 3]",IC50 [2],"IC50 ([1]; read-out: SK-N-BE(2) IC50, SK-N-BE (2) cells, BH4 levels by LC-MS)"
Cc1c(C(=O)N2CC(CNC(=O)OC(C)(C)C)C2)cnn1-c1nc2ccsc2c(=O)[nH]1 [Q-0582],1000 nM,20 nM,–
Cc1c(C(=O)N2CC(CN)C2)cnn1-c1nc2ccsc2c(=O)[nH]1 [Q-0583],3700 nM,100 nM,–
CN[C@@H]1CCN(C(=O)c2cnn(-c3nc4ccsc4c(=O)[nH]3)c2C)C1 [Q-0584],10000 nM,200 nM,–
Cc1c(C(=O)N2CCC(c3c[nH]c4ccccc34)CC2)cnn1-c1nn2cccc2c(=O)[nH]1 [Q-0585],33 nM,6 nM,–
Cc1c(C(=O)N2CCC(c3nc4cc(F)ccc4s3)CC2)cnn1-c1nc2c(c(=O)[nH]1)CCC2 [Q-0587],21 nM,10 nM,–
CN[C@@H]1CCN(C(=O)c2cnn(-c3nc4c(c(=O)[nH]3)CCC4)c2C)C1 [Q-0588],4700 nM,70 nM,–
Cc1c(C(=O)N2CC(CN)C2)cnn1-c1nc2c(c(=O)[nH]1)CCC2 [Q-0589],1700 nM,60 nM,–
Cc1c(C(=O)N2CCC(c3nc4ccc(F)cc4s3)CC2)cnn1-c1nc2c(c(=O)[nH]1)CCC2 [Q-0590],15 nM,3 nM,–
Cc1c(C(=O)N2CCC(c3cn(C)c4ccccc34)CC2)cnn1-c1nc2c(c(=O)[nH]1)CCC2 [Q-0592],76 nM,20 nM,–
"O=C(c1cccc(-c2nc3c(c(=O)[nH]2)CCC3)c1)N1CCC(C(F)(F)F)CC1 [Q-0593, 2-(3-(4-(trifluoromethyl)piperidine-1-carbonyl)phenyl)-6,7-dihydro-3H-cyclopenta[d]pyrimidin-4(5H)-one]",7400 nM,200 nM,–
Cc1c(C(=O)N2CCC(c3c[nH]c4ccccc34)CC2)ccnc1-c1nc2ccsc2c(=O)[nH]1 [Q-0594],3600 nM,300 nM,–
Cc1c(C(=O)N2CCC3(CCCCN3)C2)cnn1-c1nc2ccsc2c(=O)[nH]1 (centres unmarked) [Q-0595],4400 nM,70 nM,–
Cc1c(C(=O)N2CC2c2ccccc2)cnn1-c1nc2c(c(=O)[nH]1)CCC2 (centres unmarked) [Q-0596],16 nM,4 nM,–
Cc1c(C(=O)N2CCC(S(=O)(=O)c3ccc(F)c(F)c3)CC2)cnn1-c1nc2ccsc2c(=O)[nH]1 [Q-0597],53 nM,3 nM,–
Cc1c(C(=O)N2CCC(C(O)(C(F)(F)F)C(F)(F)F)CC2)cnn1-c1nc2c(c(=O)[nH]1)CCC2 [Q-0598],–,4 nM,10 nM
Cc1c(C(=O)N2CCC(C#N)(c3ccccc3)CC2)cnn1-c1nn2cccc2c(=O)[nH]1 [Q-0599],12 nM,2 nM,–

SMILES,"IC50 [1, 3]",IC50 [2],"IC50 ([1]; read-out: SK-N-BE(2) IC50, SK-N-BE (2) cells, BH4 levels by LC-MS)"
Cc1c(C(=O)N2CCC(C(C)(C)C#N)CC2)cnn1-c1nn2cccc2c(=O)[nH]1 [Q-0600],57 nM,1 nM,–
Cc1c(C(=O)N2CCC3(CCCN3Cc3ccccc3)C2)cnn1-c1nc2ccsc2c(=O)[nH]1 (centres unmarked) [Q-0601],100 nM,5 nM,–
Cc1c(C(=O)N2CC3COCC(C3)C2)cnn1-c1nc2ccsc2c(=O)[nH]1 [Q-0602],1200 nM,20 nM,–
Cc1c(C(=O)N2CCC(c3nc4cc(F)ccc4s3)CC2)cnn1-c1nc2ccsc2c(=O)[nH]1 [Q-0603],100 nM,6 nM,–
Cc1c(C(=O)N2CCC(c3nc4cc(F)ccc4s3)CC2)cnn1-c1nn2cccc2c(=O)[nH]1 [Q-0604],72 nM,7 nM,–
Cc1c(C(=O)N2CCC(c3nc4ccccc4s3)CC2)ccnc1-c1nc2ccsc2c(=O)[nH]1 [Q-0605],10000 nM,200 nM,–
Cc1c(C(=O)N2CCC(C(F)(F)F)CC2)cnn1-c1nn2c(F)ccc2c(=O)[nH]1 [Q-0606],51 nM,2 nM,–
Cc1c(C(=O)N2CCC(c3nc4ccccc4s3)CC2)cnn1-c1nn2c(F)ccc2c(=O)[nH]1 [Q-0607],87 nM,5 nM,–
Cc1c(C(=O)N2CCC(c3nc4ccccc4s3)CC2)cnn1-c1nn2cccc2c(=O)[nH]1 [Q-0608],56 nM,2 nM,–
"O=C(c1ccc(-c2nc3c(c(=O)[nH]2)CCC3)s1)N1CCC(C(F)(F)F)CC1 [Q-0609, 2-(5-(4-(trifluoromethyl)piperidine-1-carbonyl)thiophen-2-yl)-6,7-dihydro-3H-cyclopenta[d]pyrimidin-4(5H)-one]",84 nM,1 nM,–
Cc1c(C(=O)N2C[C@@H]3[C@H](C2)[C@@H]3C(N)=O)cnn1-c1nc2c(c(=O)[nH]1)CCC2 [Q-0610],10000 nM,10 nM,–
Cc1[nH]c2ccccc2c1C1CCN(C(=O)c2cnn(-c3nc4c(c(=O)[nH]3)CCC4)c2C)CC1 [Q-0611],29 nM,4 nM,–
COC(=O)C12CC(C(=O)N3CCN(C(=O)c4cnn(-c5nc6c(c(=O)[nH]5)CCC6)c4C)CC3)(C1)C2 [Q-0612],2600 nM,10 nM,–
Cc1c(C(=O)N2CC3CC3(O)C2)cnn1-c1nc2c(c(=O)[nH]1)CCC2 (centres unmarked) [Q-0614],1600 nM,10 nM,–
Cc1c(C(=O)N2CCC(c3cccc4[nH]ccc34)CC2)cnn1-c1nc2c(c(=O)[nH]1)CCC2 [Q-0615],19 nM,3 nM,–
